Drawing on ChEMBL document CHEMBL1201862, “PubChem BioAssay data set” (2004), this text covers IC50, AC50 and Ki for 13 molecules.

The target of assay [1] is Fatty acid synthase (Homo sapiens, UniProt P49327). Kind of assay: FAS thioesterase domain inhibitors, SAR follow-up, biochemical, endpoint fluorescence intensity, powder samples (AID 652164). Format: functional.
Assay [2] concerns the target T1, Methionyl-tRNA synthetase, putative (Trypanosoma brucei brucei, UniProt Q38C91).
T1 sequence (Q38C91 whole entry): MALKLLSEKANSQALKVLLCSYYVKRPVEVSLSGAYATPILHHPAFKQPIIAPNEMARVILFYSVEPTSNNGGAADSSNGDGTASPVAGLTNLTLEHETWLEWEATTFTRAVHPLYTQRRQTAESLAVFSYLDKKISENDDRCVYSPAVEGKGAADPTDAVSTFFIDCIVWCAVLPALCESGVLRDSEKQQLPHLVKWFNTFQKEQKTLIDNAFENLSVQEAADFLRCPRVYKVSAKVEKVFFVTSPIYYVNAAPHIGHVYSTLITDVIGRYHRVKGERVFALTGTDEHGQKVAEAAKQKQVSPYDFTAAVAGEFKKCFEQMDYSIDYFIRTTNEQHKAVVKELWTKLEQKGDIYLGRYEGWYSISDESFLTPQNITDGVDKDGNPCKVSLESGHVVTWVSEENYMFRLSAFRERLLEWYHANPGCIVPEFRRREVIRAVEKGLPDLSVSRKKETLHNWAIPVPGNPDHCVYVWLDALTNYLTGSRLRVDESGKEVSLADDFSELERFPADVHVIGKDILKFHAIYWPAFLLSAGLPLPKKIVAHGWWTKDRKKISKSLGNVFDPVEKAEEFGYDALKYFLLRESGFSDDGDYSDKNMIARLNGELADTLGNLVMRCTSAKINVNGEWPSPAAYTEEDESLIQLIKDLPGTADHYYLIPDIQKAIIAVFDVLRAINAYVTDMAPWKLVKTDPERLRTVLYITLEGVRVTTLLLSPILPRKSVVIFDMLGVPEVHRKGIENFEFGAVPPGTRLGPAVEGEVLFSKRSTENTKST
Format: functional, Trypanosoma brucei brucei strain 927/4 GUTat10.1.

Assay [3] in a line: Counterscreen for inhibitors of Trypanosoma brucei methionyl tRNA synthetase (MetRS): Luminescence-based cell-based high throughput dose response assay to identify compounds that are cytotoxic to Jurkat human T lymphocyte cells. It is filed as functional.
Assay [4] has as its target T1, Methionyl-tRNA synthetase, putative. Format: functional, Trypanosoma brucei brucei strain 927/4 GUTat10.1. This is another data set of the same source.
Assay [5] in a line: Late stage counterscreen for inhibitors of Trypanosoma brucei methionyl tRNA synthetase (MetRS): Luminescence-based cell-based high throughput dose response assay to identify compounds that are cytotoxic to Jurkat human T lymphocyte cells. It is filed as functional. On the technique in general: The purpose of a counterscreen is to sort out artefacts and off-target activity.
Assay [6] is described as follows: A375 melanoma cell viability loss, dose response, counter-screen for MITF inhibitor project, CellTiter-Glo luminescence, dry powder, set 4 (AID 624364).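 Note: A375 melanoma cells are MITF independent so this is a counter screen.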 Format: functional, cell-based. As to conditions: A-375.
Assay [7] is described as follows: A375 melanoma cell cytotoxicity, dose response, counter-screen for MITF inhibitor project, CellTiter-Glo luminescence, dry powder, set 2 (AID 624489).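 Note: actives are compounds lowering A375 viability meaning general cytotoxicity.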 Format: functional, cell-based. To be noted: A-375.
Assay [8] is described as follows: cytotoxicity in HeLa cells, dose response, cytotoxicity control, cell-based, plate reader, dry powder (AID 651946). Format: functional.
The target of assay [9] is fMet-Leu-Phe receptor (Homo sapiens, UniProt P21462). Kind of assay: FPR ligands, dose response (AID 519). Format: functional.
Chain of fMet-Leu-Phe receptor (P21462 whole entry): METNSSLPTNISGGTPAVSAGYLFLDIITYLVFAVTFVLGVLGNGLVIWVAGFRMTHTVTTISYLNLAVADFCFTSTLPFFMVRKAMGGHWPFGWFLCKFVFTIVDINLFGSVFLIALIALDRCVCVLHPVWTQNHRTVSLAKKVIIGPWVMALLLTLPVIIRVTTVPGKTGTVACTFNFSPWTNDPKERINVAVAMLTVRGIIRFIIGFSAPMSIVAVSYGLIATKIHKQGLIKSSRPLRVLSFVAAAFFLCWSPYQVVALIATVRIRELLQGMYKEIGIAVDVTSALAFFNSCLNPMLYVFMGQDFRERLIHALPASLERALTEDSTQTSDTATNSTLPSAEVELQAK
The target of assay [10] is Paired box protein Pax-8 (Homo sapiens, UniProt Q06710). The assay is described as follows: inhibitors of PAX8-driven TPO luciferase reporter, dose response, RMG-I cells, cherry-pick (AID 687027).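 Note: luciferase reporter driven by Pax8 target thyroperoxidase promoter measured by SteadyGlo luminescence.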 Format: functional, cell-based.
Chain of Paired box protein Pax-8 (Q06710 whole entry): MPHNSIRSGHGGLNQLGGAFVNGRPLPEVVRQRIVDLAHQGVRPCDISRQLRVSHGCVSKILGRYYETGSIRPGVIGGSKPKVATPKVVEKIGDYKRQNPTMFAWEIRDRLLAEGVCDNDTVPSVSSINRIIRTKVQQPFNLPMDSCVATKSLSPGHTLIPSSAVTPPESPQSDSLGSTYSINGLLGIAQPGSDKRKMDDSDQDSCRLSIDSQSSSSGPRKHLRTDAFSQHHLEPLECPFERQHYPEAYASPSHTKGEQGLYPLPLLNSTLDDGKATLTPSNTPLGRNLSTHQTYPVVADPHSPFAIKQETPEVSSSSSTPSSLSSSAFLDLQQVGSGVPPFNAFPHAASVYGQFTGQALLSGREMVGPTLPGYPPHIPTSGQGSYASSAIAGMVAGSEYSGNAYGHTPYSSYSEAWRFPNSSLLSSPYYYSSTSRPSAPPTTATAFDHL
The nature of assay [11]: IOSE-T80 ovarian epithelial cell cytotoxicity, dose response, cytotoxicity control for PAX8 inhibitor project, plate reader, dry powder samples (AID 743045). Format: functional, cell-based.
Assay [12] is described as follows: NIH:OVCAR-3 ovarian cancer cell cytotoxicity, dose response, PAX8 inhibitor project, plate reader, dry powder samples (AID 743044). Format: functional, cell-based.
Assay [13] is described as follows: A549 cell cytotoxicity, dose response, cytotoxicity control, plate reader, cherry-pick, antagonist series (AID 743412). It is filed as functional, cell-based.
Assay [14] can be described thus: HepG2 cell cytotoxicity, dose response, cytotoxicity control, plate reader, cherry-pick, antagonist series (AID 743416). It is filed as functional, cell-based.
Assay [15] in a line: IGROV1 ovarian cancer cell cytotoxicity, dose response, PAX8 inhibitor project, plate reader, dry powder samples (AID 743043). As to conditions: IGROV-1. Format: functional, cell-based.
A short description of assay [16]: LGR2 antagonists, dose response, cell-based, HEK293, CRE-luciferase reporter, cherry pick, set 2 (AID 743343).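 Note: transfected cells were stimulated with diluted bursicon conditioned medium after compound addition.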 Format: functional.
Assay [17] in a line: MC4R antagonists, dose response, counter-screen for LGR2 antagonist project, cell-based, plate reader, cherry pick (AID 743444).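 Note: transfected HEK 293 cells stimulated with alpha-MSH peptide; potency of inhibitors of the alpha-MSH evoked signal.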 It is filed as functional.
A short description of assay [18]: cytotoxicity in OVCAR8 ovarian cancer cells, dose response, PAX8 project, cell-based, plate reader, dry powder samples (AID 743197). Format: functional. As to conditions: OVCAR-8.
Assay [19] can be described thus: HEK293 cell cytotoxicity, dose response, cytotoxicity control, plate reader, cherry-picked samples (AID 743446). Format: functional, cell-based.
Assay [20] is described as follows: P. falciparum 3D7-ScDHODH growth inhibitors, dose response, SYBR Green, dry powder samples (AID 1159570).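 Note: parasite growth measured after 72 hours of compound exposure.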 Format: functional, cell-based.
The nature of assay [21]: HepG2 cell cytotoxicity, dose response, cytotoxicity control, plate reader, dry powder samples (AID 1159569).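 Note: inhibitor potency with signal falling toward the positive control level.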 Format: functional, cell-based.
Assay [22] in a line: P. falciparum Dd2 growth inhibitors, dose response, SYBR Green, cherry-picked samples (AID 1159567). It is filed as functional, cell-based.
Assay [23] is described as follows: P. falciparum Dd2 growth inhibitors, dose response, SYBR Green, dry powder samples (AID 1159566).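 Note: potency for growth inhibition with lower SYBR green DNA signal.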 Format: functional, cell-based.
Assay [24] is described as follows: P. falciparum ATP4 D1247Y mutant growth inhibitors, dose response, NITD609-resistant line, SYBR Green, dry powder (AID 1159571).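 Note: parasites synchronized at ring stage by sorbitol before testing.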 Format: functional, cell-based.
The target in assay [25] is NS3 (Hepatitis C virus, UniProt A3EZJ3). The assay is described as follows: HCV NS3 helicase inhibitor potency, dose response, biochemical, fluorescence polarization, ChemBridge library (AID 743264).
Chain of NS3 (A3EZJ3 whole entry): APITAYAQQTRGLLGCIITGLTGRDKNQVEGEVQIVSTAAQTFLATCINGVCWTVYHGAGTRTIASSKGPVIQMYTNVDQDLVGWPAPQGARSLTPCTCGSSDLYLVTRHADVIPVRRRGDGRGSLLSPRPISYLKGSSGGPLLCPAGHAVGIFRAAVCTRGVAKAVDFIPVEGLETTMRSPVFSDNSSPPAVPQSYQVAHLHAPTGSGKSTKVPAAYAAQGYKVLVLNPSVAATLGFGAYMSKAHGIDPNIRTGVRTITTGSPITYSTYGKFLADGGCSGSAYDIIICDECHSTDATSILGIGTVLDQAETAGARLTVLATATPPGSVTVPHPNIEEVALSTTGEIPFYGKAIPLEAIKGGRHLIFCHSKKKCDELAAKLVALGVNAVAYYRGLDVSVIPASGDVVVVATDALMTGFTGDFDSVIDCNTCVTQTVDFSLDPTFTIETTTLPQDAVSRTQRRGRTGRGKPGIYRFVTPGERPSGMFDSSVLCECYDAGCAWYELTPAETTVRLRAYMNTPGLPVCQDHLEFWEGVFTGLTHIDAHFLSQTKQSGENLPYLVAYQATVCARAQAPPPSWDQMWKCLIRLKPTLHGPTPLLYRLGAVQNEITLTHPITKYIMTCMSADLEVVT
Assay [26] is described as follows: CEM21 cell cytotoxicity, dose response, cytotoxicity control, plate reader, dry powder (AID 687026). It is filed as functional, cell-based.
The target in assay [27] is Endoplasmic reticulum aminopeptidase 1 (Homo sapiens, UniProt Q9NZ08). The assay is described as follows: ERAP1 aminopeptidase inhibitors, dose response, biochemical, cherry-pick, set 2, plate reader (AID 743314).
Chain of Endoplasmic reticulum aminopeptidase 1 (Q9NZ08 whole entry): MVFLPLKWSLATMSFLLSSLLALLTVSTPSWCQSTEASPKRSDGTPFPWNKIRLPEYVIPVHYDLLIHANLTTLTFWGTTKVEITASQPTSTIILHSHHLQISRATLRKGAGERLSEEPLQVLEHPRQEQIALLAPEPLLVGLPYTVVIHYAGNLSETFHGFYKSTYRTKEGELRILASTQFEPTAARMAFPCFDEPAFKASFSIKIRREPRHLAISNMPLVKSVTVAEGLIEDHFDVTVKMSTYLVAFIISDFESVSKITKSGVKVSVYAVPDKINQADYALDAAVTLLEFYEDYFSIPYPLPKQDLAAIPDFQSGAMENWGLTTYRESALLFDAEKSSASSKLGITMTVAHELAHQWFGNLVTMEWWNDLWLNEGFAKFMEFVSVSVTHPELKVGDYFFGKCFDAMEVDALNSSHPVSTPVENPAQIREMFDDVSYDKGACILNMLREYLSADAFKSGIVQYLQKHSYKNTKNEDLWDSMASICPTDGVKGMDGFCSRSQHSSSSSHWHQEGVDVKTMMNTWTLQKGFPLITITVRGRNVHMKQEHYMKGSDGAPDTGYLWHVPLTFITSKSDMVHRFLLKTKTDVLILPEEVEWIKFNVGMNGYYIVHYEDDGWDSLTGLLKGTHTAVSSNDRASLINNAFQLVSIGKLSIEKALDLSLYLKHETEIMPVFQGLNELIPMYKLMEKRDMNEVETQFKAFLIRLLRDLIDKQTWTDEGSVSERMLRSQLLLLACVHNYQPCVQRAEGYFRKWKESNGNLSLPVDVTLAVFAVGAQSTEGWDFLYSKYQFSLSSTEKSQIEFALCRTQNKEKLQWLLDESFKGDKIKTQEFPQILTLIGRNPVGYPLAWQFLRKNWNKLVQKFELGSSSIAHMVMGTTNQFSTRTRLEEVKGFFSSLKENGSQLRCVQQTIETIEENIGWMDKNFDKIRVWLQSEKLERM
In assay [28] the target is Kappa-type opioid receptor (Homo sapiens, UniProt P41145). Kind of assay: OPRK1 antagonists, late-stage follow-up, cell-based, fluorescence, dose response (AID 652032). It is filed as functional.
Chain of Kappa-type opioid receptor (P41145 whole entry): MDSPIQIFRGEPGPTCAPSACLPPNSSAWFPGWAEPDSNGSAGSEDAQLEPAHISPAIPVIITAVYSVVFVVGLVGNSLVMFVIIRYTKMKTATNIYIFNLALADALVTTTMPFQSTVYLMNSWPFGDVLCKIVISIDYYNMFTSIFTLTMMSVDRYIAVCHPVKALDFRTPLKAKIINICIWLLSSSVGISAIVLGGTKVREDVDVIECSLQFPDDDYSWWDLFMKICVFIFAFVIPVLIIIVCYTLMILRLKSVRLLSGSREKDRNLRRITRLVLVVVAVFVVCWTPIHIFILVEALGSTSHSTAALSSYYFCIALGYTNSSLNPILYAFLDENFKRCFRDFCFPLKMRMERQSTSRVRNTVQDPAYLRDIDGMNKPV
In assay [29] the target is T2, Calpain-2 catalytic subunit (Sus scrofa, UniProt P43367).
T2 sequence (P43367 whole entry): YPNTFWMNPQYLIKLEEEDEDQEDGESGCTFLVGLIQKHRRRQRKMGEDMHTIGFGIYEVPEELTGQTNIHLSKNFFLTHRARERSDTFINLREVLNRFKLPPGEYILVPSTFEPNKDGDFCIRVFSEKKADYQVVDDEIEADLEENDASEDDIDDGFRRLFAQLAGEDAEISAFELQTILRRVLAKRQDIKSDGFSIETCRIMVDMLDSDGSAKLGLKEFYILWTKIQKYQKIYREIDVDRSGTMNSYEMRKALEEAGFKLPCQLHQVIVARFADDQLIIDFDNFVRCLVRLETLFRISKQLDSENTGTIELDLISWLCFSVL
The assay is described as follows: pig calpain II inhibitor potency, dose response, biochemical, fluorogenic peptide substrate (AID 1420). Format: functional.

The subject of assay [30] is HeLa. Kind of assay: HeLa cell cytotoxicity, dose response, cytotoxicity control, ATP luminescence, cherry-pick samples (AID 687004). It is filed as functional, cell-based. As to conditions: Homo sapiens.
Assay [31] in a line: A2780 ovarian cancer cell cytotoxicity, dose response, cytotoxicity control, plate reader, dry powder samples (AID 743046). It is filed as functional, cell-based.
Assay [32] can be described thus: YAP1 pathway inhibition via CTGF transcript levels, dose response, cell-based, DLD1 colon cancer, RT-qPCR, cherry-pick (AID 1053122). It is filed as functional. As to conditions: Cancer cell lines.
Assay [33] concerns the target Induced myeloid leukemia cell differentiation protein Mcl-1 (Homo sapiens, UniProt Q07820). It is filed as functional.
Assay [34] addresses Disintegrin and metalloproteinase domain-containing protein 17 (Homo sapiens, UniProt P78536). Kind of assay: exosite inhibitors of ADAM17, dose response, biochemical (AID 743260).
Assay [35] is described as follows: ADAM10 protease inhibitors, dose response, selectivity assay for ADAM17 exosite inhibitor project, biochemical, FRET peptide substrate, recombinant human ADAM10 (AID 743259).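 Note: ADAM10 enzyme cleaving a FRET peptide substrate.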

Calls of active or inactive are those of the source.

Chain of Induced myeloid leukemia cell differentiation protein Mcl-1 (Q07820 whole entry, the tested form may be a part): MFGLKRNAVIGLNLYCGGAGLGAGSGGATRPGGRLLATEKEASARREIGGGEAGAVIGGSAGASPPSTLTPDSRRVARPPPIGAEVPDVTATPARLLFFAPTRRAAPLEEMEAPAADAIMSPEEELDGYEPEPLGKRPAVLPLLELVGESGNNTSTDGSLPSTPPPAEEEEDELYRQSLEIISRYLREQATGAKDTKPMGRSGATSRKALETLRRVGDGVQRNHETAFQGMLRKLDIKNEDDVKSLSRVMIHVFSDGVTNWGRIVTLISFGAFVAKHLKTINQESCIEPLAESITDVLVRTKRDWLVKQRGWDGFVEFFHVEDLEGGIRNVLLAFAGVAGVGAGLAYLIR
Chain of Disintegrin and metalloproteinase domain-containing protein 17 (P78536 whole entry, the tested form may be a part): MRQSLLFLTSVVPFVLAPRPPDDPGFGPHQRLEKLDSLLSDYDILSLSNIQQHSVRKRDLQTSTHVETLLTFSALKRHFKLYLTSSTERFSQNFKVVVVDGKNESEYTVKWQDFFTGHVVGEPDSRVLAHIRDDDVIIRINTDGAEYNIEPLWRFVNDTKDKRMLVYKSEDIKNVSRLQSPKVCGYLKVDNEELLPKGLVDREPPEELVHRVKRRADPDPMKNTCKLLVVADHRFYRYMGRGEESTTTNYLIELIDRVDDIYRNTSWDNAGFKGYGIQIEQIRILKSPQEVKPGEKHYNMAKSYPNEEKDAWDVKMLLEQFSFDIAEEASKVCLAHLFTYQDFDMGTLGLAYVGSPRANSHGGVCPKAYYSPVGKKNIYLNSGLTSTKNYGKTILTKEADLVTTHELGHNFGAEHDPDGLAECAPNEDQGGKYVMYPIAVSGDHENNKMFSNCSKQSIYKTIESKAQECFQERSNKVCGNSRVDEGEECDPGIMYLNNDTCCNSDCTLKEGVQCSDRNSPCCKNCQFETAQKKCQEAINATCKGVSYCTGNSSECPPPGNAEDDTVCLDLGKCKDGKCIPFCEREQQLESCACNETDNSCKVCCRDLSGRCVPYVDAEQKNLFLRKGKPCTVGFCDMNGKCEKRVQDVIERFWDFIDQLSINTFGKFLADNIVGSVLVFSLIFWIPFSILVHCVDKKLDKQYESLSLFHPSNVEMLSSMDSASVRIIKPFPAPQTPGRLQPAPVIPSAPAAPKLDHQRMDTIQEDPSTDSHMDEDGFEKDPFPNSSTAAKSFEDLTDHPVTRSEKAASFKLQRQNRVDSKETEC

Usually IC50 stands for the concentration at which inhibition is half-maximal. As for `CC(=O)Nc1nc(-c2ccc(S(=O)(=O)N3CCOCC3)cc2)cs1`, the IC50 in assay [1] was 11.4 µM (active).
As to `Cc1ccc(NC(=O)CN(C)C(=O)CCSc2ccc(F)cc2)cc1`, the IC50 in assay [2] was 4.57 µM (active); in assay [3], 83.3 µM (inactive); in [4] it was 3.09 µM (active); in assay [5], > 83.3 µM (inactive).
As usually defined, the AC50 is the concentration giving half of the maximal activity seen. On to `C=CCNC1=C(N2CCOCC2)C(=O)c2ccccc2C1=O`, for which the AC50 in [6] was 34.1 µM (active); in assay [7], 9.04 µM (active).
For `[O-][S+](Cc1cn(-c2ccccc2)nn1)c1nnc(-c2ccc(Cl)cc2)o1` (centres undefined), the AC50 in assay [8] is 15.6 µM (active).
As usually defined, the Ki is the equilibrium dissociation constant of an inhibitor or competing ligand from its target. As to `CCCc1nc2ccccc2c2nc(N)nn12`, the Ki in assay [9] is > 66.7 µM (inactive).
Take `O=C(C1CC1)N1C[C@@H]2N[C@H](C1)[C@@H]2c1ccc(-c2cccc(F)c2)cc1`: the AC50 is 6.38 µM (active) in [10]; 21.1 µM (active) in assay [11]; 27 µM (active) in [12]; 3.9 µM (active) in [13]; 19.6 µM (active) in [14]; 26.7 µM (active) in [15]. The AC50 in assay [16] was 12.5 µM (active); in assay [17], 6.56 µM (active); in assay [18], 21.2 µM (active); in assay [19], 28.1 µM (active); in assay [20], 0.9 µM (active); in assay [21] it was 23.2 µM (active). The AC50 in assay [22] was 2.2 µM (active); in [23], 0.778 µM (active); in assay [24], 1.04 µM (active).
For `Cc1ccc(C)n1-c1ccc(C(=O)O)c(O)c1`, in [25], the IC50 was 1.85 µM (inactive). The AC50 in assay [26] was > 70 µM (inactive).
On to `O=c1ccc2cc(O[C@@H]3O[C@@H](CO)[C@H](O)[C@@H](O)[C@@H]3O)c(O)cc2o1`, for which the AC50 in [27] is 2.37 µM (active).
As to `COC(=O)c1cc(Br)cnc1N1CCCC(NC2CCCCC2)C1` (centres undefined), the IC50 in assay [28] was 11.7 µM (inactive).
Take `CC(C)c1ccccc1N=C(S)NN(Cc1ccccc1)c1ccccc1`: the IC50 in assay [29] is < 0.4 µM (not active). The AC50 in [30] is > 52 µM (inactive).
Consider `COc1ccc(S(=O)(=O)Nc2ccc3c(c2)C(=O)N([C@H](C)CO)C[C@@H](C)[C@@H](CN(C)Cc2ccc(C(F)(F)F)cc2)OCCCC[C@@H](C)O3)cc1`, for which the AC50 in [10] is 7.09 µM (active); in assay [31] it was 51.2 µM (active); in [12] it was 27.9 µM (active); in assay [15], 65.2 µM (active); in assay [18] it was 30.6 µM (active).
As for `C[C@@H]1C/C=C/C[C@@H](c2cccc(Cl)c2)NC(=O)[C@H](Cc2ccccc2)N(C)C(=O)c2ccccc2O1.C[C@@H]1C/C=C\C[C@@H](c2cccc(Cl)c2)NC(=O)[C@H](Cc2ccccc2)N(C)C(=O)c2ccccc2O1`, the AC50 in assay [32] was 0.492 µM (active).
With `CN(C)c1ccc(NC(=O)c2ccc(COc3cccc(Cl)c3)o2)cc1`, the IC50 is 23.4 µM (active) in assay [33], > 69.5 µM (inactive) in [34] and 8.25 µM (active) in assay [35].
